{"source": "patent US6723702B2", "about": "“Use of relaxin treat diseases related to vasoconstriction” (RAS Medical, Inc., priority 2000, dated 2004)", "key": {"[1]": {"tested_on": "bFGF and VEGF protein staining, peri-infarct area of the heart", "assay": "Rat LCAL model: immunohistochemical analysis of the peri-infarct area", "format": "in vivo", "protocol": "Immunohistochemical analysis of the peri-infarct area of the heart was performed as follows. Transverse sections from paraffin embedded hearts were obtained at 3 levels. Sections were stained with H&E to assess neovascularization. Slides of heart sections were deparaffinized in xylene and washed with ethanol. Slides were then rinsed in sterile double distilled water before proceeding with antigen retrieval, as recommended by the antibody vendor (Biogenex). Sections were incubated for 30 minutes in 1.5% normal goat blocking serum (Biogenex, San Ramon, Calif.) and washed three times for 5 minutes each with PBS. Sections were then incubated with a monoclonal antibody against VEGF (VEGF-C1), or a polyclonal antibody against bFGF (FGF-2-147) (both at 5 μg/ml), before washing with PBS. Primary, and anti-goat or anti-rabbit secondary antibodies were purchased from Santa Cruz Biotechnology (Santa Cruz, Calif.). Sections were then incubated in multilink, a biotinylated goat anti-immunoglobulin for use with mouse, rabbit, guinea pig and rat primary antibodies (Biogenex) for 30 minutes at room temperature, followed by washing twice for 10 minutes each with PBS. Sections were labeled with peroxidase conjugated streptavidin for 20 minutes before finally washing twice for 5 minutes with PBS and air-drying). […]"}, "human cardiac cells": {"tested_on": "human cardiac cells", "assay": "VEGF protein secreted by human cardiac cells", "format": "cell-based", "conditions": "100 ng/ml, 24 hr", "protocol": "Consistent with RT-PCR data, relaxin stimulated a small but significant dose-related increase in levels of VEGF protein secreted by human cardiac. Cells were seeded in 35 mm wells at 2.5×10^5 cells per well 24 hours prior to treatment with relaxin. Cells were washed twice with SmBM (no supplements) and incubated for 2 hr with SmBM treatment medium (containing 400 pg/ml bFGF, gentamycin, amphoteracin B, and 2% fetal calf serum) at 37° C., 5% CO2. The medium was then replaced with SmBM treatment medium without relaxin or with concentrations of relaxin from 0.1 ng/ml to 100 ng/ml. Cells were then incubated for 24 hr (37° C., 5% CO2)."}, "[2]": {"tested_on": "ischemic wound on the back region of rats", "assay": "Ischemic H-shaped double flap wound model", "format": "in vivo, rat", "protocol": "The effect of rhRLX on normal and ischemic wound healing in two rat models of dermal wound healing was evaluated. RhRLX in vehicle, or vehicle alone, was delivered by subcutaneous infusion to Sprague-Dawley rats using an implanted ALZET7 osmotic pump (Alza Corp., Mountain View, Calif.).\nIn the second model, a standardized ischemic, H-shaped, double flap wound was made on the back region. The area of surface necrosis was measured on day 14 and day 21.\nIn the third animal model, a standard ischemic wound (H-shaped, 8 cm long and 2 cm wide) was created on the back region of rats. Perforating branches of the central vein were cut to ensure that the wound was ischemic. The resulting wound is then ischemic, but not completely necrotic. On day 14 and day 21, the surface necrosis was measured. RhRlx treatment (0.2 mg/kg via minipump) reduced the surface necrotic area in the flap region, compared to vehicle treatment (at day 14: vehicle 195 mm^2, rhRlx 123 mm^2; at day 21 vehicle 180 mm^2, rhRlx 103 mm^2)."}, "conscious male rats": {"tested_on": "conscious male rats", "assay": "5-day rhRLX infusion in conscious male rats: MAP, renal function, hematocrit, plasma osmolality, sodium", "format": "in vivo, rat", "protocol": "After being placed in the experimental cage, a 100 μl blood sample was drawn from the arterial catheter into a heparinized tube for measurement of baseline plasma osmolality, sodium concentration and hematocrit prior to the administration of any fluids. […] Next, a bolus of inulin (IN, 0.2 ml of a 20% stock solution/100 g BW) and para-aminohippurate (PAH, 0.1 ml of a 2% working solution/100 g BW) was given over 1 minute into the venous catheter followed by a constant infusion of the two reagents at a rate of 0.5 mg/minute per 100 g BW and 0.1 mg/minute per 100 g BW, respectively. The flow rate was 19 μl/minute delivered by a Model 200 Syringe Pump (kd Scientific, Boston Mass.). Finally, the obturator in the bladder catheter was removed, and the latter was extended with a short piece of polyethylene tubing to facilitate the collection of urine.\nThe technique of urine collection has proven to be reliable. Conrad and Colpoys (1986) J. Clin. Invest. 77:236-245; Danielson and Conrad (1995) J. Clin. Invest. 96:482-490; and Danielson and Conrad (1996) Circ. Res. 79:1161-1166. Indeed, after reaching steady-state in this study, the excretion rates of IN and PAH were 91±3 and 100±4% of their respective infusions. After measuring baseline mean arterial pressure and renal function, an osmotic minipump (model 2ML1, Alza Co., Palo Alto Calif.) containing either recombinant human relaxin (rhRLX; n=12 rats) or vehicle (n=7) was implanted subcutaneously on the back using light ether anesthesia. […] Five days later, mean arterial pressure (MAP), glomerular filtration rate (GFR), effective renal plasma flow (ERPF), and other parameters were again assessed as describe above. At this time, the excretion rates of IN and PAH were 91±3 and 98±2% of their respective infusion rates. At the end of the experiment, 1.0 ml of blood was collected for determination of serum rhRLX.\nInulin concentration in plasma and urine was measured by the anthrone method, and PAH was determined by the method of Bratton and Marshall as modified by Smith. This method is described in Conrad (1984) Kidney Int. 26:24-29, and references cited therein. Plasma sodium was measured by a Kodak Ektachem Instrument (Rochester, N.Y.). Plasma osmolality was determined by freezing point depression (Advanced Osmometer, Model 3MO, Advanced Instruments, Needham Heights Mass.). All urine and plasma samples from MWRI were coded and sent to UNM for analysis of IN, PAH, sodium and osmolality (by L.A.D.). The rhRLX in serum was measured using a quantitative sandwich immunoassay, again in a blinded fashion. Danielson et al. (1999) J. Clin. Invest. 103:525-533."}}}
{"substance": "rhRLX: recombinant human relaxin, identical in amino acid sequence to the product of the human H2 gene; A chain of 24, B chain of 29 amino acids", "values": [{"measurement": "peri-infarct bFGF staining", "setting": "[1]; 7 and 21 days, vs vehicle-treated hearts, blinded scoring", "value": "more intense"}, {"measurement": "intensity of VEGF staining", "setting": "[1]; relaxin vs vehicle-treated hearts", "value": "No differences in intensity"}, {"measurement": "VEGF secretion, maximum induction over control levels", "setting": "human cardiac cells", "value": 155, "unit": "%"}, {"measurement": "surface necrotic area in the flap region", "setting": "[2]; 0.2 mg/kg via minipump, day 14", "value": 123, "unit": "mm^2"}, {"measurement": "surface necrotic area in the flap region", "setting": "[2]; 0.2 mg/kg via minipump, day 21", "value": 103, "unit": "mm^2"}, {"measurement": "surface necrotic area in the flap region", "setting": "[2]; Example 4, day not stated", "value": 123, "unit": "mm^2"}, {"measurement": "expression of NO synthase on vascular endothelium", "setting": "[2]; immunohistochemical staining, systemic treatment", "value": "enhances"}, {"measurement": "effect on ERPF", "setting": "conscious male rats; 4 μg/hour for 5 days (FIG. 3)", "value": "significantly increased"}, {"measurement": "effect on ERVR", "setting": "conscious male rats; 4 μg/hour for 5 days (FIG. 3)", "value": "reducing"}, {"measurement": "effect on GFR", "setting": "conscious male rats; 4 μg/hour for 5 days (FIG. 3)", "value": "significantly increased"}, {"measurement": "effect on MAP", "setting": "conscious male rats; 4 μg/hour for 5 days (FIG. 3)", "value": "did not significantly affect"}, {"measurement": "HCT (hematocrit), change from the baseline", "setting": "conscious male rats; rhRLX 4 μg/hour for 5 days", "value": "−5.0 ± 0.6", "unit": "%"}, {"measurement": "PNa+ (plasma sodium concentration), change from the baseline", "setting": "conscious male rats; rhRLX 4 μg/hour for 5 days", "value": "−5.3 ± 0.4", "unit": "mEq/L"}, {"measurement": "Posm (plasma osmolality), change from the baseline", "setting": "conscious male rats; rhRLX 4 μg/hour for 5 days", "value": "−10.9 ± 1.4", "unit": "mOsm/kg H2O"}]}
